# Assays:
# [1] = test system: MDA-MB-231 xenograft tumors; assay: Xenograft tumor growth in NOD-SCID mice with chemotherapy treatment; type: in vivo, mouse; conditions: three doses Taxol/paclitaxel 10 mg/kg or two doses Doxorubicin 5 mg/kg; for growth of control tumors compared to vehicle: GFP (Control) tumors
# Experimental: Mena or Mena^INV expression blocks Taxol efficacy on tumors in treated animals. Mice with xenograft tumors were generated by injection of MDA-MB-231 cells expressing GFP (Control), GFP-Mena (Mena) or GFP-Mena^INV (Mena^INV) into the mammary fat pads of NOD-SCID mice. […] Tumor size was measured before and after treatment. […] These in vivo findings are consistent with the results obtained in the in vitro data, and indicate that Men/Mena^INV promotes resistance to Taxol as judged by tumor growth.
# Xenograft tumor generation and in vivo chemotherapy treatment. All animal experiments were approved by the MIT Division of Comparative Medicine. 2 million MDA-MB-231 cells expressing different MENA isoforms (in PBS and 20% collagen I) were injected into the 4th right mammary fat pad of six week-old female NOD-SCID mice (Taconic). When the tumors reached 1 cm in diameter, mice were treated every five days with either three doses of paclitaxel at 10 mg/kg in 1% DMSO, 3% PEG (MW 400), 1% Tween 80 in PBS by intra-peritoneal injection. In parallel, mice were treated with only in 1% DMSO, 3% PEG (MW 400), 1% Tween 80 in PBS as a vehicle control. One day after the last injection, tumors were measured and mice were use for intravital imaging and then sacrificed. Their tumors and lungs were fixed in 10% formalin overnight, their bone marrow were collected using PBS and cultured in DMEM with 10% fetal bovine serum. The number of tumor cell colonies in cultured bone morrow was counted 1 month after collection. The number of metastasis in each lobe of the lung were counted from lung H&E stained sections visualized by light microscopy and counted by two blinded individuals. Each tumor group contained 3-5 mice.
# MENA isoform expression is associated with increased tumor growth in vivo during paclitaxel treatment. Whether MENA-associated paclitaxel resistance could also be observed in vivo was examined. Xenograft tumors were generated by injecting MDA-MB-231 cells expressing MENA isoforms into the mammary fat pads of NOD-SCID mice. Mice were treated with paclitaxel once tumors reached 1 cm in diameter (FIG. 30A).
# [2] = test system: MDA-MB-231 xenograft tumors; assay: Ki67 and cleaved caspase-3 immunostaining of xenograft tumor sections; type: in vivo, mouse; conditions: for proliferation (Ki67) in control tumors: MDA-MB-231 control tumors; for proliferation (Ki67) in control tumors / proliferation (Ki67) in Mena and Mena^INV tumors: vs vehicle; for proliferation (Ki67) in Mena and Mena^INV tumors: Mena- and Mena^INV-expressing tumors; for apoptosis (cleaved caspase-3, CC3): all three types of tumor
# Description: The effects of increased Mena/Mena^INV levels on taxol treatment in vitro (increased fractions of viable cells) and in vivo (resistance to anti-tumor growth effects) could arise from increased proliferation, decreased apoptosis or both. To evaluate the effects of Mena/Mena^INV on proliferation and cell death, tumor sections were stained with antibodies to Ki67 (a proliferation marker) and cleaved caspase-3 (apopotic marker). […] Therefore, elevated Mena/Mena^INV expression allows continued tumor growth in treated animals by blocking the anti-proliferative effects of taxol treatment.
# Immunohistochemistry for Examples 16-22. Tumors dissected from NOD/SCID mice were fixed in 10% buffered formalin and embedded in paraffin. Tissue sections (5 μm thick) were deparaffinized followed by antigen retrieval using Citra Plus solution (Biogenex). After treatment with 3% H2O2, sections were blocked with serum, incubated with primary antibodies overnight at 4° C. and fluorescently labeled secondary antibodies at room temperature for 2 hours. Sections were stained using anti-MENA (1:500), biotinylated anti-MENA^INV (1:500), anti-CC3 (1:200), anti-Ki67 (1:200) and DAPI. Fluorochromes on secondary antibodies included AlexaFluor 488, 594 or 647 (Jackson Immunoresearch). Sections were mounted in Fluoromount mounting media and imaged at room temperature. Z series of images were taken on a DeltaVision microscope using Softworx acquisition, an Olympus 40×1.3 NA plan apo objective and a Photometrics CoolSNAP HQ camera. At least 10 fields were captured for each tumor, with at least 3 tumors per tumor group.
# As such, proliferation and apoptosis was examined by quantifying the intensity of cells positive for Ki67 and CC3, respectively by immunostaining.
# [3] = test system: MDA-MB-231 cells; assay: Time-lapse microscopy of cell division; type: cell-based, human; conditions: for increase in time spent in cell division: 10 nM paclitaxel vs vehicle
# Experimental: In vitro imaging. Glass bottom dishes were coated with Co11agen at 0.1 mg/mL diluted in PBS for 1 hour at 37° C. Cells expressing different MENA isoform were treated with paclitaxel at 1, 10 or 100 nM or vehicle and immediately plated on the glass bottom dishes. 30 minutes later, cells were imaged overnight, with one image acquired every 10 minutes for 16 hours on a Nikon spinning disk with a 20× objective and an Andor/NeoZyla camera. Individual cells were manually tracked using ImageJ and Manual Tracking plug-in. Data were analyzed using the chemotaxis tool developed by IBIDI. For analysis of time spent in cell division, the time between when the mother cell first rounds up, to when both daughter cells have spread out on substrate was measured. The percentage of successful cell divisions was quantified by counting the number of cell divisions that lead to two surviving daughter cells. Data are pooled from at least 50 cells tracked in three independent experiments.
# One of the key steps in paclitaxel-induced cell death is cell arrest in the G2/M phases of the cell cycle. […] Time-lapse microscopy was performed to study the cell division phenotypes in more detail, and imaged cells expressing MENA isoforms while adherent on collagen (FIGS. 35D, 35E, 35F).
# [4] = test system: microtubules (MT); assay: MT length image analysis; type: cell-based, human; conditions: 231-MENA^INV cells, 10 nM paclitaxel 24 hours
# [5] = test system: ERK, Akt; assay: Western blot for pERK Y204, ERK, pAkt473 and Akt; type: cell-based, human
# Experimental: Western blot. Cells were lysed in 25 mM Tris, 150 mM NaCl, 10% glycerol, 1% NP 40 and […] EDTA with a protease Mini-complete protease inhibitors (Roche) and a phosphatase inhibitor cocktail (PhosSTOP, Roche) at 4° C. for 20 minutes. Protein lysates were separated by SDS-PAGE, transferred to a nitrocellulose membrane and blocked with Odyssey Blocking Buffer (LiCor). Membranes were incubated with primary antibody overnight at 4° C. and Licor secondary antibodies at room temperature for 1 hour. Protein level intensity was measured with Image J.
# The MAPK signaling cascade is among the key pathways known to interact with MTs. Both ERK1/2 interact with MTs; MT stabilization by paclitaxel increases ERK phosphorylation and, in turn, ERK pathway activation increases MT dynamics.
# [6] = test system: MDA-MB-231 cells; assay: Proliferation assay (cell count) with combinations of paclitaxel and MEKi; type: cell-based, human; conditions: 231-MENA and 231-MENA^INV cells
# [7] = 72 hours of paclitaxel treatment, all three cell lines
structure (smiles),measurement,setting,value
CC(=O)O[C@H]1C(=O)[C@@]2(C)[C@H]([C@H](OC(=O)c3ccccc3)[C@]3(O)C[C@H](OC(=O)[C@H](O)[C@@H](NC(=O)c4ccccc4)c4ccccc4)C(C)=C1C3(C)C)[C@]1(OC(C)=O)CO[C@@H]1C[C@@H]2O [paclitaxel],growth of control tumors compared to vehicle,[1],significantly decreased the growth of 231-Control tumors
same,growth of control tumors compared to vehicle,[1]; listed as Taxol,significantly decreased growth of control tumors
same,growth / response of Mena or Mena^INV tumors,[1]; Mena or Mena^INV expressing tumors,unaffected
same,proliferation (Ki67) in control tumors,[2],decreased the amount of Ki67 staining
same,proliferation (Ki67) in control tumors,[2]; listed as Taxol,significantly decreased
same,proliferation (Ki67) in Mena and Mena^INV tumors,[2],failed to decrease the numbers of Ki67-positive cells
same,proliferation (Ki67) in Mena and Mena^INV tumors,[2]; listed as Taxol,failed to decrease proliferation
same,"apoptosis (cleaved caspase-3, CC3)",[2],increase in cell death as marked by CC3 positive cells in all tumors
same,"apoptosis (cleaved caspase-3, CC3)",[2]; listed as Taxol,"similar, significant apoptotic responses"
same,decrease in the number of successful divisions,"[3]; 231-Control cells, 10 nM paclitaxel",40%
same,increase in time spent in cell division,[3]; 231-Control cells,four-fold
same,increase in time spent in cell division,[3]; 231-MENA and 231-MENA^INV cells,two-fold
same,successful cell divisions,[3]; paclitaxel treated 231-MENA and 231-MENA^INV cells,over 90%
same,MT length,[4],small but significant increase
same,total ERK levels,[5]; 72 hours of paclitaxel treatment,unchanged
same,pERK Y204 levels,[5]; 72 hours of paclitaxel treatment (10 or 100 nM),231-MENA and 231-MENA^INV cells had higher levels of pERK Y204 relative to 231-Control cells
same,pAkt473 levels,[5]; [7],decreased pAkt473 levels equally
same,total Akt levels,[5]; [7],without significantly changing
same,concentrations needed to obtain high levels of cell death relative to 231-Control cells,[6],higher concentrations of each drug were needed
